Test results: US20100029681A1, “HETEROCYCLIC COMPOUNDS AS CALCIUM CHANNEL BLOCKERS” (priority 2006, published 2010)
Read-outs that look alike come from different tables or passages of the source.

Target: T1, rat brain N-type calcium channel subunits (α1B+α2δ+β1b cDNA subunits) (Rattus norvegicus, UniProt Q02294)
T1 construct: expressed in transfected cells; host or cells: HEK 293
Assay: N-type calcium channel block, whole cell patch clamp in transfected HEK 293 cells
Format: cell-based
Procedure: N-type calcium channel blocking activity was assayed in human embryonic kidney cells, HEK 293, stably transfected with the rat brain N-type calcium channel subunits (α1B+α2δ+β1b cDNA subunits). Alternatively, N-type calcium channels (α1B+α2δ+β1b cDNA subunits), L-type channels (α1C+α2δ+β1b cDNA subunits) and P/Q-type channels (α1A+α2δ+β1b cDNA subunits) were transiently expressed in HEK 293 cells. Briefly, cells were cultured in Dulbecco's modified eagle medium (DMEM) supplemented with 10% fetal bovine serum, 200 U/ml penicillin and 0.2 mg/ml streptomycin at 37° C. with 5% CO2. At 85% confluency cells were split with 0.25% trypsin/1 mM EDTA and plated at 10% confluency on glass coverslips. At 12 hours the medium was replaced and the cells transiently transfected using a standard calcium phosphate protocol and the appropriate calcium channel cDNA's. Fresh DMEM was supplied and the cells transferred to 28° C./5% CO2. Cells were incubated for 1 to 2 days prior to whole cell recording.
Whole cell patch clamp experiments were performed using an Axopatch 200B amplifier (Axon Instruments, Burlingame, Calif.) linked to a personal computer equipped with pCLAMP software. The external and internal recording solutions contained, respectively, 5 mM BaCl2, 10 mM MgCl2, 10 mM HEPES, 40 mM TEACl, 10 mM glucose, 87.5 mM CsCl (pH 7.2) and 108 mM CsMS, 4 mM MgCl2, 9 mM EGTA, 9 mM HEPES (pH 7.2). Currents were typically elicited from a holding potential of −80 mV to +10 mV using Clampex software (Axon Instruments). Typically, currents were first elicited with low frequency stimulation (0.067 Hz) and allowed to stabilize prior to application of the compounds. The compounds were then applied during the low frequency pulse trains for two to three minutes to assess tonic block, and subsequently the pulse frequency was increased to 0.2 Hz to assess frequency dependent block. Data were analyzed using Clampfit (Axon Instruments) and SigmaPlot 4.0 (Jandel Scientific).

[1] = −50 mV, read-out: IC50 @ −50 mV
[2] = −80 mV, read-out: IC50 @ −80 mV

T1 sequence (Q02294 whole entry): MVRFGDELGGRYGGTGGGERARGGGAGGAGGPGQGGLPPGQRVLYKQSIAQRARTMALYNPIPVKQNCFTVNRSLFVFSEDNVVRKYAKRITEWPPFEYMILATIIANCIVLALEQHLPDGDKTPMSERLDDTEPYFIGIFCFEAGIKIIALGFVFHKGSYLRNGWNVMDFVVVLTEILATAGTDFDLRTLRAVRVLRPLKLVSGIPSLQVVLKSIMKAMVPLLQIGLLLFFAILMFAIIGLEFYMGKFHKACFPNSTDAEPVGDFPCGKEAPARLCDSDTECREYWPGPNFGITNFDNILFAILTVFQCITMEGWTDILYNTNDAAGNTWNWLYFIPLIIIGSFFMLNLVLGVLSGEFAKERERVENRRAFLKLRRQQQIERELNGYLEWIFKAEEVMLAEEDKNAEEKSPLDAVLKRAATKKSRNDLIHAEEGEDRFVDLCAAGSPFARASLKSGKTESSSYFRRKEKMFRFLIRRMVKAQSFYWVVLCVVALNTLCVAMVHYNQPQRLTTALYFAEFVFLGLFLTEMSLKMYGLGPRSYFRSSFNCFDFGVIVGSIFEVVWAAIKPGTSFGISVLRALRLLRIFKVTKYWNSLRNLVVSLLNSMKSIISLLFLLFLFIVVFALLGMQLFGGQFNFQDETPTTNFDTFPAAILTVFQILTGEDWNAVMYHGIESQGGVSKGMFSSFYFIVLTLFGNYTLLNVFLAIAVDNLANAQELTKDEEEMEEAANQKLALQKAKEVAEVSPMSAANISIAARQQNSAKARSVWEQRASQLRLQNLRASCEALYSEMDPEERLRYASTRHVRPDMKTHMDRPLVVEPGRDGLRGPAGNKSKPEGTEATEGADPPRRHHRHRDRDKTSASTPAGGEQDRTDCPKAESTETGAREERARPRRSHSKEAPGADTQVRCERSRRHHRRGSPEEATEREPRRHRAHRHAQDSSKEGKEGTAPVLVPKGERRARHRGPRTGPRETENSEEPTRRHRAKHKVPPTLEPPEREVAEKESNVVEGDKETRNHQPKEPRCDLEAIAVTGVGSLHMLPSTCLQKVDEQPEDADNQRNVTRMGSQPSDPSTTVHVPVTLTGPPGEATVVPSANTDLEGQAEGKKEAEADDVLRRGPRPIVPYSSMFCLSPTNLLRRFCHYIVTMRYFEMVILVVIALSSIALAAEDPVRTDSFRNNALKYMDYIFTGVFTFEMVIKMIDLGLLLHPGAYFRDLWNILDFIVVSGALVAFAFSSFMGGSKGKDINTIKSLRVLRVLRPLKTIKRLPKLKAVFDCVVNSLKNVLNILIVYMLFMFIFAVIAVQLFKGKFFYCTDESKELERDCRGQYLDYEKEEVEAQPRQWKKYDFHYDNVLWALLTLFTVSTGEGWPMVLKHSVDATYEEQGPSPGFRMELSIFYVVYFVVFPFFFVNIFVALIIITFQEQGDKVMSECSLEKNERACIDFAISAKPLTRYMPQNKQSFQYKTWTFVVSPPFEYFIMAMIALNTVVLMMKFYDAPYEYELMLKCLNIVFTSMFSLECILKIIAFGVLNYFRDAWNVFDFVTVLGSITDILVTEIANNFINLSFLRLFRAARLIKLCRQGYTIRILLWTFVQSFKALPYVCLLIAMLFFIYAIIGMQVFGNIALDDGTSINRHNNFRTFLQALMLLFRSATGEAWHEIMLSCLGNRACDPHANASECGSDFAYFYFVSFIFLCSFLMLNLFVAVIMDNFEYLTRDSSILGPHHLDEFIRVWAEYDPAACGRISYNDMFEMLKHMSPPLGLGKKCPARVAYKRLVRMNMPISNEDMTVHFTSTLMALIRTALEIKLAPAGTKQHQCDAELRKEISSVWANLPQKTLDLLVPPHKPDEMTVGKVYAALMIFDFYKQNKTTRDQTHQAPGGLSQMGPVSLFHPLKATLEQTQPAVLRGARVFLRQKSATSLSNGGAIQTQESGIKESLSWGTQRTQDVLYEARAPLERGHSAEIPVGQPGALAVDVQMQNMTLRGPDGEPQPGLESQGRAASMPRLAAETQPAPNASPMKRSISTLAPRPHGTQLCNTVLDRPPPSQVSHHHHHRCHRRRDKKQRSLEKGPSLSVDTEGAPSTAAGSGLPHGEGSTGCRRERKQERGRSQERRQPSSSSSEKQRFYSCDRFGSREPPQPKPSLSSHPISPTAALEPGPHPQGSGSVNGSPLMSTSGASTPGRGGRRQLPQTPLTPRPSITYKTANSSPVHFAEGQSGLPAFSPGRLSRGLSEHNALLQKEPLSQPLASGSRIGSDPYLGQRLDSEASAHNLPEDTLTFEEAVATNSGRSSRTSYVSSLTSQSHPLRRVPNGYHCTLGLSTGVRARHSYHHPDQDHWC
T1 sequence (P54290 25-944 partner limits assumed): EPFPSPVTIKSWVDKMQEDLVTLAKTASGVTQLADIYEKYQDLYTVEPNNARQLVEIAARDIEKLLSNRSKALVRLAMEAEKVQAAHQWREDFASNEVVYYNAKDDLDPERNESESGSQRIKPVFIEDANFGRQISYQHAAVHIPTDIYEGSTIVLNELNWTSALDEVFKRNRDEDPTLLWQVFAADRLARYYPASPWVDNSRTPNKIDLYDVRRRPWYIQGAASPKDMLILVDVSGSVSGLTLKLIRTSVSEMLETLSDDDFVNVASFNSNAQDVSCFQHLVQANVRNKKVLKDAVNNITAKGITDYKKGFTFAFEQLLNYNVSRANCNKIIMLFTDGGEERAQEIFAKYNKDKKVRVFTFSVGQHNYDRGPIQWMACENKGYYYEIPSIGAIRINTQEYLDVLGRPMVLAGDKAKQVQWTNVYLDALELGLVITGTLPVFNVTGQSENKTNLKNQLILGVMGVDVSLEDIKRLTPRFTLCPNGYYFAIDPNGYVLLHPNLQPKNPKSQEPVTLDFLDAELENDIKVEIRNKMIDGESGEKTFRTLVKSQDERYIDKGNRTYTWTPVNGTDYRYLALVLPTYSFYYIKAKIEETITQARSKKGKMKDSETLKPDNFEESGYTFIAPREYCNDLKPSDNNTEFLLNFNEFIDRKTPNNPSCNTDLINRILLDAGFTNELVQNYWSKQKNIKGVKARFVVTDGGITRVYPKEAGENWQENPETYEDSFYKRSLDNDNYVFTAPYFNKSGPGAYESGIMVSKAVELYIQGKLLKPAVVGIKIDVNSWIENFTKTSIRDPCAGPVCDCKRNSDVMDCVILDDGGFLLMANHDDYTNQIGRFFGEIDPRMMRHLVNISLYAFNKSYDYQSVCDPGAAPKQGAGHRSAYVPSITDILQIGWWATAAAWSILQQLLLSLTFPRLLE
T1 sequence (P54290 945-1091 partner limits assumed): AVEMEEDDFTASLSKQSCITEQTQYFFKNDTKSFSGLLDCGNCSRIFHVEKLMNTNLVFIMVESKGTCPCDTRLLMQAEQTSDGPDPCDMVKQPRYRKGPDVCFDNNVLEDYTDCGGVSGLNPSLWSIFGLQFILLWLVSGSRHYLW
T1 sequence (P54283 whole entry partner): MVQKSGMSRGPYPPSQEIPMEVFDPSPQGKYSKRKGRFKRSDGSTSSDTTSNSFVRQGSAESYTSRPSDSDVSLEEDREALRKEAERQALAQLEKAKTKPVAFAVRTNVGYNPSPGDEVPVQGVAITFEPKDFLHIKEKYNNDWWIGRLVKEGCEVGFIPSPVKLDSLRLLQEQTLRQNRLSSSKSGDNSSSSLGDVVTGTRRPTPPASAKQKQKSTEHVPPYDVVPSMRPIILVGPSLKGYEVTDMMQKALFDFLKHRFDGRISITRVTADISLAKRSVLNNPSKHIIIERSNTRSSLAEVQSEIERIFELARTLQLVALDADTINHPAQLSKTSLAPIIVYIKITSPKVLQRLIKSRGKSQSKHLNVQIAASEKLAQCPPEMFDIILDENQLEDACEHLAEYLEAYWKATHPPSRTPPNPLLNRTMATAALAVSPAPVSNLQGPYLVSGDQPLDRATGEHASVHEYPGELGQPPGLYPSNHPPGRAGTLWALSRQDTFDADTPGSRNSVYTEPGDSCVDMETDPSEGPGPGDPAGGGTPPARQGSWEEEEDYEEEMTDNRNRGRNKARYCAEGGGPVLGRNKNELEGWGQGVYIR

Row | SMILES | IC50 [1] | IC50 [2]
1 | O=C(CN1CCN(C(c2ccccc2)c2ccccc2)CC1)Nc1nc2ccc(F)cc2s1 [Compound 1, 2-(4-benzhydrylpiperazin-1-yl)-N-(6-fluorobenzo[d]thiazol-2-yl)acetamide] | 400 nM | 770 nM
2 | O=C(CN1CCN(C(c2ccc(F)cc2)c2ccc(F)cc2)CC1)Nc1nc2ccc(F)cc2s1 [Compound 2, 2-(4-(bis(4-fluorophenyl)methyl)piperazin-1-yl)-N-(6-fluorobenzo[d]thiazol-2-yl)acetamide] | 490 nM | 920 nM
3 | O=C(CN1CCN(C(c2ccc(F)cc2)c2ccc(F)cc2)CC1)Nc1nccs1 [Compound 4, 2-(4-(bis(4-fluorophenyl)methyl)piperazin-1-yl)-N-(thiazol-2-yl)acetamide] | 1200 nM | 3400 nM
4 | Cc1cnc(NC(=O)CN2CCN(C(c3ccccc3)c3ccccc3)CC2)s1 [Compound 5, 2-(4-benzhydrylpiperazin-1-yl)-N-(5-methylthiazol-2-yl)acetamide] | 780 nM | 1950 nM
5 | O=C(CN1CCN(C(c2ccc(F)cc2)c2ccc(F)cc2)CC1)Nc1ncc(Cl)s1 [Compound 8, 2-(4-(bis(4-fluorophenyl)methyl)piperazin-1-yl)-N-(5-chlorothiazol-2-yl)acetamide] | 530 nM | 1040 nM
6 | Cc1ccc(-c2csc(NC(=O)CN3CCN(C(c4ccccc4)c4ccccc4)CC3)n2)cc1 [Compound 9, 2-(4-benzhydrylpiperazin-1-yl)-N-(4-p-tolylthiazol-2-yl)acetamide] | 2500 nM | 6400 nM
7 | Cc1ccc(-c2csc(NC(=O)CN3CCN(C(c4ccc(F)cc4)c4ccc(F)cc4)CC3)n2)cc1 [Compound 10, 2-(4-(bis(4-fluorophenyl)methyl)piperazin-1-yl)-N-(4-p-tolylthiazol-2-yl)acetamide] | 1910 nM | 3540 nM
8 | O=C(CN1CCN(C(c2ccccc2)c2ccccc2)CC1)Nc1nc2ccc(Cl)cc2s1 [Compound 11, 2-(4-benzhydrylpiperazin-1-yl)-N-(6-chlorobenzo[d]thiazol-2-yl)acetamide] | 1600 nM | 3400 nM
9 | O=C(CN1CCN(C(c2ccc(F)cc2)c2ccc(F)cc2)CC1)Nc1nc2ccc(Cl)cc2s1 [Compound 12, 2-(4-(bis(4-fluorophenyl)methyl)piperazin-1-yl)-N-(6-chlorobenzo[d]thiazol-2-yl)acetamide] | 2560 nM | 4580 nM
10 | O=C(CN1CCN(C(c2ccccc2)c2ccccc2)CC1)Nc1nc2ccccc2[nH]1 [Compound 14, 2-(4-benzhydrylpiperazin-1-yl)-N-(1H-benzo[d]imidazol-2-yl)acetamide] | 250 nM | 290 nM
11 | O=C(CN1CCN(C(c2ccccc2)c2ccccc2)CC1)Nc1nc2ccccc2s1 [Compound 16, 2-(4-benzhydrylpiperazin-1-yl)-N-(benzo[d]thiazol-2-yl)acetamide] | 600 nM | 1210 nM
12 | O=C(CN1CCN(C(c2ccc(F)cc2)c2ccc(F)cc2)CC1)Nc1nc2ccccc2s1 [Compound 17, N-(benzo[d]thiazol-2-yl)-2-(4-(bis(4-fluorophenyl)methyl)piperazin-1-yl)acetamide] | 530 nM | 2530 nM
13 | O=C(CN1CCN(C(c2ccccc2)c2ccccc2)CC1)Nc1nc2ccc(OC(F)(F)F)cc2s1 [Compound 18, 2-(4-benzhydrylpiperazin-1-yl)-N-(6-trifluoromethoxybenzo[d]thiazol-2-yl)acetamide] | 1160 nM | 2900 nM
14 | COc1ccc2nc(NC(=O)CN3CCN(C(c4ccccc4)c4ccccc4)CC3)sc2c1 [Compound 19, 2-(4-benzhydrylpiperazin-1-yl)-N-(6-methoxybenzo[d]thiazol-2-yl)acetamide] | 1540 nM | 3160 nM
15 | CS(=O)(=O)c1ccc2nc(NC(=O)CN3CCN(C(c4ccccc4)c4ccccc4)CC3)sc2c1 [Compound 20, 2-(4-benzhydrylpiperazin-1-yl)-N-(6-mesylbenzo[d]thiazol-2-yl)acetamide] | 1640 nM | 3130 nM
